Several values for one entry are separate records, joined by “and”; a condition that tells them apart may be missing. Equal entries are not always repeated. Numbers after ± are expanded uncertainties.
Experiments:
[1] = Liquid; for mass density: 101.33 kPa
[2] = excess molar enthalpy (molar enthalpy of mixing); xn = mol fraction of the nth substance listed; conditions: 323.15 K, 101 kPa, Liquid, Flow calorimetry

OCCO [1,2-ethanediol]
Conditions	vapor or sublimation pressure
[1], 363.15 K	1.202 ± 0.11 kPa and 1.28 ± 0.11 kPa and 1.38 ± 0.1 kPa

CC(=O)OCCO [2-hydroxyethyl acetate]
[1]
Conditions	mass density [kg/m3]	vapor or sublimation pressure
283.16 K	1118.6 ± 0.9	–
288.14 K	1113.8 ± 0.9	–
293.14 K	1108.9 ± 0.8	–
298.14 K	1104.1 ± 0.8	–
303.14 K	1099.2 ± 0.8	–
308.14 K	1094.4 ± 0.8	–
313.14 K	1089.5 ± 0.8	–
318.14 K	1084.6 ± 0.8	–
323.14 K	1079.7 ± 0.7	–
328.14 K	1074.8 ± 0.7	–
333.14 K	1069.9 ± 0.7	–
338.14 K	1064.9 ± 0.7	–
343.14 K	1059.9 ± 0.7	–
363.15 K	–	2.228 ± 0.12 kPa [middle of 4 runs]
374.42 K	–	3.79 ± 0.19 kPa
403.66 K	–	13.81 ± 0.57 kPa
417.65 K	–	23.64 ± 0.96 kPa
427.41 K	–	33.46 ± 1.4 kPa
434.9 K	–	43.3 ± 1.7 kPa
440.57 K	–	53.13 ± 2.1 kPa
444.25 K	–	62.95 ± 2.5 kPa
448.78 K	–	72.79 ± 2.9 kPa

CC(=O)OCCO [2-hydroxyethyl acetate] + CC(=O)O
[2]
Conditions	excess molar enthalpy [kcal/mol]
x2 = 0.0798	-0.0241 ± 0.000478
x2 = 0.1906	-0.0502 ± 0.000717
x2 = 0.2919	-0.0636 ± 0.000956
x2 = 0.414	-0.0664 ± 0.000956
x2 = 0.5236	-0.0576 ± 0.000717
x2 = 0.6224	-0.0437 ± 0.000717
x2 = 0.7332	-0.0223 ± 0.000454
x2 = 0.8318	-0.00323 ± 0.000263
x2 = 0.9203	0.00684 ± 0.000311

CC(=O)OCCO [2-hydroxyethyl acetate] + CC(=O)OCCOC(C)=O
[2]
Conditions	excess molar enthalpy [kcal/mol]
x1 = 0.103	0.0688 ± 0.000956
x1 = 0.231	0.13 ± 0.00143
x1 = 0.3777	0.163 ± 0.00191
x1 = 0.5367	0.167 ± 0.00191
x1 = 0.7024	0.142 ± 0.00167
x1 = 0.8299	0.098 ± 0.0012
x1 = 0.9272	0.0495 ± 0.000717

CC(=O)OCCO [2-hydroxyethyl acetate] + O
[2]
Conditions	excess molar enthalpy [kcal/mol]
x2 = 0.1179	-0.192 ± 0.00215
x2 = 0.2578	-0.176 ± 0.00191
x2 = 0.3978	-0.117 ± 0.00143
x2 = 0.546	-0.0727 ± 0.000956
x2 = 0.6907	-0.0373 ± 0.000717
x2 = 0.825	-0.0169 ± 0.000406
x2 = 0.9399	-0.00478 ± 0.000239

CC(=O)OCCO [2-hydroxyethyl acetate] + OCCO
[2]
Conditions	excess molar enthalpy [kcal/mol]
x1 = 0.0784	0.0435 ± 0.000717
x1 = 0.1656	0.0808 ± 0.000956
x1 = 0.2632	0.111 ± 0.00143
x1 = 0.3732	0.132 ± 0.00167
x1 = 0.4718	0.139 ± 0.00167
x1 = 0.5815	0.136 ± 0.00167
x1 = 0.7043	0.117 ± 0.00143
x1 = 0.8065	0.0894 ± 0.0012
x1 = 0.9188	0.043 ± 0.000717

CC(=O)O [acetic acid]
Conditions	vapor or sublimation pressure
[1], 363.15 K	39.68 ± 0.72 kPa and 39.67 ± 0.72 kPa and 39.66 ± 0.72 kPa

Source: the NIST ThermoML archive (doi:10.1016/j.fluid.2007.05.030)
